# Assay results: ChEMBL document CHEMBL2203030, “Synthesis, characterization, antidepressant and antioxidant activity of novel piperamides bearing piperidine and piperazine analogues” (Bioorg Med Chem Lett, 2012)
# How the values were obtained:
# [1] = molecular target: T1, Amine oxidase [flavin-containing] B (Mus musculus, UniProt Q8BW75); assay: Inhibition of MAOB in mouse brain mitochondrial fraction assessed as enzyme activity per mg of protein using beta-PEA substrate incubated for 20 mins by UV-spectrophotometry; format: tissue-based
# T1 sequence (Q8BW75 whole entry): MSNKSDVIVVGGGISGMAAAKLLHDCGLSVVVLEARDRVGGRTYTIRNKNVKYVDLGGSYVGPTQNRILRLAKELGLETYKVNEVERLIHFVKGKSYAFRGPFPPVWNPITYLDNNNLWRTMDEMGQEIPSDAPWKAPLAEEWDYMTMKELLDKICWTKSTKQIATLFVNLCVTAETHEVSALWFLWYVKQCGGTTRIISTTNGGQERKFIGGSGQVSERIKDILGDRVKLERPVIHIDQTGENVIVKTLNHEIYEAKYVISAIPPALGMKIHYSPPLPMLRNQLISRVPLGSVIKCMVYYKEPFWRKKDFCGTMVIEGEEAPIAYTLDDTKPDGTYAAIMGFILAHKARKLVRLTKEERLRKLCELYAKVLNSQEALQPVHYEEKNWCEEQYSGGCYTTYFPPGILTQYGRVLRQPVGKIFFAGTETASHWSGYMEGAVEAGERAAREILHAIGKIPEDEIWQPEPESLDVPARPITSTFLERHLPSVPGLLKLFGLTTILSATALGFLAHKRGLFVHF
# [2] = molecular target: T2, Amine oxidase [flavin-containing] A (Mus musculus, UniProt Q64133); assay: Inhibition of MAOA in mouse brain mitochondrial fraction assessed as enzyme activity per mg of protein using 5-HT substrate incubated for 20 mins by UV-spectrophotometry; format: tissue-based
# T2 sequence (Q64133 whole entry): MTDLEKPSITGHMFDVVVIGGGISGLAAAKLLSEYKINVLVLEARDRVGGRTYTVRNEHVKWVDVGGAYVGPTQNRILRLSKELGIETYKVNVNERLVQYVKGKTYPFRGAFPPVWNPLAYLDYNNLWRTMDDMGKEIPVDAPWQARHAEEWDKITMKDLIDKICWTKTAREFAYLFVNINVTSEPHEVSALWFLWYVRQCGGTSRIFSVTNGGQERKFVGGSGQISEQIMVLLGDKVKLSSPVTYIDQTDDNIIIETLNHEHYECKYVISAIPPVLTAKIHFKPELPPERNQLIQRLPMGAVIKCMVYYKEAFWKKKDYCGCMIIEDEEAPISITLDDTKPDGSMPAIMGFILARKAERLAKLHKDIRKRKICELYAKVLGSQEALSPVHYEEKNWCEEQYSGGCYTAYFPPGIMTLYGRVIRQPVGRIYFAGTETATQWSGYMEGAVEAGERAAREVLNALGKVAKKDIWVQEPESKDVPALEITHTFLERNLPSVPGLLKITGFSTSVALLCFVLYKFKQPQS
# Staphylococcus aureus [3] = assay: Antimicrobial activity against Staphylococcus aureus NCIM 5021 by broth dilution method; format: functional
# Mus musculus [4] = assay: Antidepressant activity in Swiss albino mouse assessed as mean immobility time measured during last 4 mins of single 6 mins test session at 20 mg/kg, po by forced swim test (reference value: 75.33 +/- 3.35 secs); format: functional
# Candida albicans [5] = assay: Antimicrobial activity against Candida albicans NCIM 3471 by broth dilution method; format: functional
# Pseudomonas aeruginosa [6] = assay: Antimicrobial activity against Pseudomonas aeruginosa NCIM 5029 at 100 ug/mL incubated for 24 hrs by agar disc diffusion method; format: functional; conditions: NCIM 5029, 24 h, read-out: IZ
# Aspergillus flavus [7] = assay: Antimicrobial activity against Aspergillus flavus NCIM 524 at 100 ug/mL incubated for 48 hrs by agar disc diffusion method; format: functional; conditions: NCIM 524, 48 h, read-out: IZ
# [8] = system: Radical scavenging activity; assay: Antioxidant activity assessed as DPPH free radical scavenging activity by spectrophotometry; format: functional
# Mus musculus [9] = assay: Antidepressant activity in Swiss albino mouse assessed as mean immobility time measured during 6 mins period at 20 mg/kg, po administered 30 mins before test by tail suspension test (reference value: 185.7 +/- 5.33 secs); format: functional
# Pseudomonas aeruginosa [10] = assay: Antimicrobial activity against Pseudomonas aeruginosa NCIM 5029 by broth dilution method; format: functional
# Escherichia coli [11] = assay: Antimicrobial activity against Escherichia coli NCIM 2574 at 100 ug/mL incubated for 24 hrs by agar disc diffusion method; format: functional; conditions: NCIM 2574, 24 h, read-out: IZ
# Staphylococcus aureus [12] = assay: Antimicrobial activity against Staphylococcus aureus NCIM 5021 at 100 ug/mL incubated for 24 hrs by agar disc diffusion method; format: functional; conditions: NCIM 5021, 24 h, read-out: IZ
# Bacillus subtilis [13] = assay: Antimicrobial activity against Bacillus subtilis NCIM 2999 by broth dilution method; format: functional
# Aspergillus flavus [14] = assay: Antimicrobial activity against Aspergillus flavus NCIM 524 by broth dilution method; format: functional
# Bacillus subtilis [15] = assay: Antimicrobial activity against Bacillus subtilis NCIM 2999 at 100 ug/mL incubated for 24 hrs by agar disc diffusion method; format: functional; conditions: NCIM 2999, 24 h, read-out: IZ
# Candida albicans [16] = assay: Antimicrobial activity against Candida albicans NCIM 3471 at 100 ug/mL incubated for 48 hrs by agar disc diffusion method; format: functional; conditions: NCIM 3471, 48 h, read-out: IZ
# [17] = Antioxidant activity assessed as superoxide scavenging activity using xanthine-xanthine oxidase system by NBT dye reduction based assay; format: functional
# Escherichia coli [18] = assay: Antimicrobial activity against Escherichia coli NCIM 2574 by broth dilution method; format: functional
SMILES,Activity [1] [nmol],Activity [2] [nmol],MIC (Staphylococcus aureus [3]) [µg/mL],Time (Mus musculus [4]) [s],MIC (Candida albicans [5]) [µg/mL],zone of inhibition at 100 µg/mL (Pseudomonas aeruginosa [6]) [mm],zone of inhibition at 100 µg/mL (Aspergillus flavus [7]) [mm],IC50 [8] [µg/mL],Time (Mus musculus [9]) [s],MIC (Pseudomonas aeruginosa [10]) [µg/mL],zone of inhibition at 100 µg/mL (Escherichia coli [11]) [mm],zone of inhibition at 100 µg/mL (Staphylococcus aureus [12]) [mm],MIC (Bacillus subtilis [13]) [µg/mL],MIC (Aspergillus flavus [14]) [µg/mL],zone of inhibition at 100 µg/mL (Bacillus subtilis [15]) [mm],zone of inhibition at 100 µg/mL (Candida albicans [16]) [mm],IC50 [17] [µg/mL],MIC (Escherichia coli [18]) [µg/mL]
C#CCN(C)CCCOc1ccc(Cl)cc1Cl [CLORGILINE],18.16,17.05,,,,,,,,,,,,,,,,
COc1cc(/C=C/C(=O)N2CCN(c3ccccc3)CC2)cc2c1OCO2,,,18.3,66.2,25,13,11,36.9,143.5,25,10,12,18,40,14,13.7,55.3,25
COc1cc(/C=C/C(=O)N2C(C)CCCC2C)cc2c1OCO2 (configuration not stated),,,28,43.33,25,11,15,13.8,77.33,30,10,11,30,25,12,12,15.8,50
COc1cc(/C=C/C(=O)N2CCCCC2)cc2c1OCO2,18.01,17.09,24,32.15,28,16,11,14.9,78.18,30,15,10,26,30,13,12.5,18.2,30
COc1cc(/C=C/C(=O)N2CCN(c3ccccn3)CC2)cc2c1OCO2,,,15.2,67.6,14,17,10.9,19.3,148.5,20,11,14,15.5,15,12,11.4,18.5,22
O=C1O[C@H]([C@@H](O)CO)C(O)=C1O [ASCORBIC ACID],,,,,,,,12.6,,,,,,,,,,
COc1cc(/C=C/C(=O)N2CCC(O)CC2)cc2c1OCO2,15.72,14.46,50,30.8,100,11,10.2,8.3,76.18,> 100,11,10,50,90,7,14,12.8,> 100
